What was measured:
[1] = test system: Glycogen synthase kinase-3 alpha (Homo sapiens), P49840 [UNDEFINED MUTATION]; assay: Inhibition of human GSK-3alpha S449A mutant (2 to end residues) at 10 uM using phospho GS2 peptide as substrate after 40 mins in presence of [gamma-33ATP] by scintillation counting method relative to control
[2] = test system: Tyrosine-protein kinase ABL1 (Homo sapiens), P00519 [T315I]; assay: Inhibition of human ABL1 T315I mutant (27 to end residues) assessed as residual activity at 1 uM using EAIYAAPFAKKK as substrate incubated for 40 mins in presence of [gamma-33ATP] by scintillation counting based radiometry assay relative to control
[3] = biological target: Calcium/calmodulin-dependent protein kinase type 1D (Homo sapiens) (UniProt Q8IU85); assay: Inhibition of recombinant full length human CaMK1delta assessed as residual activity at 1 uM […] incubated for 40 mins in presence of [gamma-33ATP] by scintillation counting based radiometry assay relative to control
[4] = biological target: Calcium/calmodulin-dependent protein kinase type IV (Homo sapiens) (UniProt Q16566); assay: Inhibition of recombinant full length human CaMK4 assessed as residual activity at 1 uM […] incubated for 40 mins in presence of [gamma-33ATP] by scintillation counting based radiometry assay relative to control
[5] = biological target: Casein kinase I isoform delta (Homo sapiens) (UniProt P48730); assay: Inhibition of recombinant human CK1delta (1 to 294 residues) assessed as residual activity at 1 uM using KRRRALS(p)VASLPGL as substrate incubated for 40 mins in presence of [gamma-33ATP] by scintillation counting based radiometry assay relative to control
[6] = biological target: Epithelial discoidin domain-containing receptor 1 (Homo sapiens) (UniProt Q08345); assay: Inhibition of recombinant human DDR1 (492 to end residues) assessed as residual activity at 1 uM using KKKSPGEYVNIEFG as substrate at 40 mins in presence of [gamma-33ATP] by scintillation counting based radiometry assay relative to control
[7] = biological target: Ephrin type-B receptor 3 (Homo sapiens) (UniProt P54753); assay: Inhibition of recombinant human EphB3 (599 to 920 residues) assessed as residual activity at 1 uM using poly(Glu, Tyr) 4:1 as substrate at 40 mins in presence of [gamma-33ATP] by scintillation counting based radiometry assay relative to control
[8] = biological target: Fibroblast growth factor receptor 4 (Homo sapiens) (UniProt P22455); assay: Inhibition of recombinant human FGFR4 (442 to 755 residues) assessed as residual activity at 1 uM using poly(Glu, Tyr) 4:1 as substrate at 40 mins in presence of [gamma-33ATP] by scintillation counting based radiometry assay relative to control
[9] = biological target: Insulin receptor (Homo sapiens) (UniProt P06213); assay: Inhibition of human activated IR (1005 to 1310 residues) assessed as residual activity at 1 uM using KKKSPGEYVNIEFG as substrate after 40 mins by [gamma-33ATP] radiometric assay relative to control
[10] = biological target: Serine/threonine-protein kinase 26 (Homo sapiens) (UniProt Q9P289); assay: Inhibition of recombinant human MST4 (4 to 304 residues) assessed as residual activity at 1 uM using RLGRDKYKTLRQIRQ as substrate measured after 40 mins in presence of [gamma33P]ATP by scintillation counting method relative to control
[11] = biological target: Serine/threonine-protein kinase mTOR (Homo sapiens) (UniProt P42345); assay: Inhibition of recombinant full-length human mTOR assessed as residual activity at 1 uM measured after 40 mins in presence of [gamma33P]ATP by scintillation counting method relative to control
[12] = biological target: Serine/threonine-protein kinase Nek11 (Homo sapiens) (UniProt Q8NG66); assay: Inhibition of recombinant full length human NEK11 assessed as residual activity at 1 uM myelin basic protein as substrate measured after 40 mins in presence of [gamma33P]ATP by scintillation counting method relative to control
[13] = biological target: Protein kinase C zeta type (Homo sapiens) (UniProt Q05513); assay: Inhibition of recombinant human PKCzeta (2 to end residues) assessed as residual activity at 1 uM using ERMRPRKRQGSVRRRV as substrate measured after 40 mins in presence of [gamma33P]ATP by scintillation counting method relative to control
[14] = biological target: Mitogen-activated protein kinase 11 (Homo sapiens) (UniProt Q15759); assay: Inhibition of recombinant human full length SAPK2b assessed as residual activity at 1 uM using myelin basic protein as substrate measured after 40 mins in presence of [gamma33P]ATP by scintillation counting method relative to control
[15] = test system: Proto-oncogene tyrosine-protein kinase Src (Homo sapiens), P12931 [T341M]; assay: Inhibition of recombinant full-length human Src T341M mutant at 1 uM assessed as residual activity at 1 uM using GGEEEEYFELVKKKK as substrate measured after 40 mins in presence of [gamma33P]ATP by scintillation counting method relative to control
[16] = test system: Serine/threonine-protein kinase TAO3 (Homo sapiens), Q9H2K8 [UNDEFINED MUTATION]; assay: Inhibition of human TAO3 (1 to 411 residues) assessed as residual activity at 1 uM using myelin basic protein as substrate measured after 40 mins in presence of [gamma33P]ATP by scintillation counting method relative to control
[17] = biological target: Serine/threonine-protein kinase tousled-like 1 (Homo sapiens) (UniProt Q9UKI8); assay: Inhibition of recombinant full-length human TLK1 at 1 uM assessed as residual activity at 1 uM using casein as substrate measured after 40 mins in presence of [gamma33P]ATP by scintillation counting method relative to control
[18] = biological target: Serine/threonine-protein kinase ULK2 (Homo sapiens) (UniProt Q8IYT8); assay: Inhibition of human ULK2 (1 to 306 residues) assessed as residual activity at 1 uM using casein as substrate measured after 40 mins in presence of [gamma33P]ATP by scintillation counting method relative to control
[19] = biological target: Tyrosine-protein kinase Yes (Homo sapiens) (UniProt P07947); assay: Inhibition of recombinant full-length human Yes at 1 uM assessed as residual activity at 1 uM using poly(Glu, Tyr) 4:1 as substrate measured after 40 mins in presence of [gamma33P]ATP by scintillation counting method relative to control
Homo sapiens [20] = organism: Homo sapiens; assay: Inhibition of recombinant full-length human PI3K p120gamma R459Q mutant at 1 uM assessed as residual activity at 1 uM using phosphatidylinositol-4, 5-bisphosphate as substrate measured after 40 mins by fluorescence assay
Homo sapiens [21] = organism: Homo sapiens; assay: Inhibition of recombinant full-length human PI3K p110delta/p85alpha N253S mutant at 1 uM assessed as residual activity at 1 uM using phosphatidylinositol-4, 5-bisphosphate as substrate measured after 40 mins by fluorescence assay
[22] = test system: PI3-kinase p110-alpha/p85-alpha (Homo sapiens), P27986+P42336 [E542K]; assay: Inhibition of recombinant full-length human PI3K p110alpha E542K mutant/p85alpha assessed as residual activity at 1 uM assessed as residual activity at 1 uM using phosphatidylinositol-4, 5-bisphosphate as substrate incubated for 40 mins in presence of [gamma33P]ATP by scintillation counting based radiometry assay relative to control; format: protein-complex assay

Sequence of Protein kinase C zeta type (Homo sapiens) (Q05513 whole entry): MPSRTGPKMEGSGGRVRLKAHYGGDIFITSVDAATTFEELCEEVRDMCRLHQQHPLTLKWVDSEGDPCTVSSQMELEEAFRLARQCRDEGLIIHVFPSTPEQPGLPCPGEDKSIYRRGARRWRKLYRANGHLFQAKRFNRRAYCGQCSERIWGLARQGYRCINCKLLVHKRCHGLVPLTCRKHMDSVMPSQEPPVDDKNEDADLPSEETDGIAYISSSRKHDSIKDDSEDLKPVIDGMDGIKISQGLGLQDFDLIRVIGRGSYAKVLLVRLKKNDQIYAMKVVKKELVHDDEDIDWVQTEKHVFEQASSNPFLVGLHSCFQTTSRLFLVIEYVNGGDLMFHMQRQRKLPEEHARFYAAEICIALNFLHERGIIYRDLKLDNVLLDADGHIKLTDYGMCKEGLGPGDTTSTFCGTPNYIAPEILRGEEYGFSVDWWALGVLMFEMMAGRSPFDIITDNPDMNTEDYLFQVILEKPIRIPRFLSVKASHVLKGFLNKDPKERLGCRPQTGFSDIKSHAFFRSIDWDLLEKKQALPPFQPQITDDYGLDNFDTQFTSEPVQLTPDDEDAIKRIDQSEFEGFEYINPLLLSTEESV
Sequence of Serine/threonine-protein kinase TAO3 (Homo sapiens), Q9H2K8 [UNDEFINED MUTATION] (Q9H2K8 whole entry, looked up, stated change not applied, the tested form may be a part): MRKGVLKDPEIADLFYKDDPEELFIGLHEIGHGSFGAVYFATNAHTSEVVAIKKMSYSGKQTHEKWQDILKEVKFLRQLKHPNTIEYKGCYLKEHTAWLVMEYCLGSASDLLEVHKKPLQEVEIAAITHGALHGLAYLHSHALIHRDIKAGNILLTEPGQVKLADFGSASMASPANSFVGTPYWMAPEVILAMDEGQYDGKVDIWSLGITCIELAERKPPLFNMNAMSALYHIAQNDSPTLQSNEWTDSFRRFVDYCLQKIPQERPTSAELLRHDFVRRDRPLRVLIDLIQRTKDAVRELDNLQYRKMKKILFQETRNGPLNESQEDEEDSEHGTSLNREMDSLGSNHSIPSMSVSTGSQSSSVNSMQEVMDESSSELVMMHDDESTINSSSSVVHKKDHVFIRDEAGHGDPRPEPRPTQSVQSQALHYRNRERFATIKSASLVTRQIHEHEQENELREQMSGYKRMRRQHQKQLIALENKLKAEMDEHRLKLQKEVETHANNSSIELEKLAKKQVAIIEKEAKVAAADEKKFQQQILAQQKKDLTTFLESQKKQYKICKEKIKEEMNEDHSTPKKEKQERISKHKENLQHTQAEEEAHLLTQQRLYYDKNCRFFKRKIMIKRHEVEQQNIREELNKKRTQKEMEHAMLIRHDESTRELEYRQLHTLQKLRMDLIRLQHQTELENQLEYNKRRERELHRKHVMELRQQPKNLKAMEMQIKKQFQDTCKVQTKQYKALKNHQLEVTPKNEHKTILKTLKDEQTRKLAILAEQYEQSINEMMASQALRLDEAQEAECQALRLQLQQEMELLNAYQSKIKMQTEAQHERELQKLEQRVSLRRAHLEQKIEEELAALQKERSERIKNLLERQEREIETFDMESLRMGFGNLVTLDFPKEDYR
Sequence of Glycogen synthase kinase-3 alpha (Homo sapiens), P49840 [UNDEFINED MUTATION] (P49840 whole entry, looked up, stated change not applied): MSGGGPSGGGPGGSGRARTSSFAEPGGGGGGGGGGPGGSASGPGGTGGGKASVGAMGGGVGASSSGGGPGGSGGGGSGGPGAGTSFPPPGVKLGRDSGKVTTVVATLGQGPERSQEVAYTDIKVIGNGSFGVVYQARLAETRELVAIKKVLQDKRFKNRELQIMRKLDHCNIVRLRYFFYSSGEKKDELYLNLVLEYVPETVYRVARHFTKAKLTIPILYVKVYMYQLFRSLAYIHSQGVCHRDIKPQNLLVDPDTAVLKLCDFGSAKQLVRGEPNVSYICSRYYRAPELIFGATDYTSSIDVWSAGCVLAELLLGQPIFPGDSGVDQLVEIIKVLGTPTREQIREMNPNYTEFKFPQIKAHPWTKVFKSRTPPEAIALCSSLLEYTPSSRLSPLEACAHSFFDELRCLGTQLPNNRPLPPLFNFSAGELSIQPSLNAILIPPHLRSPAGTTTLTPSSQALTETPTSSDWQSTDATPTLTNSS
Sequence of Serine/threonine-protein kinase 26 (Homo sapiens) (Q9P289 2-416 limits assumed): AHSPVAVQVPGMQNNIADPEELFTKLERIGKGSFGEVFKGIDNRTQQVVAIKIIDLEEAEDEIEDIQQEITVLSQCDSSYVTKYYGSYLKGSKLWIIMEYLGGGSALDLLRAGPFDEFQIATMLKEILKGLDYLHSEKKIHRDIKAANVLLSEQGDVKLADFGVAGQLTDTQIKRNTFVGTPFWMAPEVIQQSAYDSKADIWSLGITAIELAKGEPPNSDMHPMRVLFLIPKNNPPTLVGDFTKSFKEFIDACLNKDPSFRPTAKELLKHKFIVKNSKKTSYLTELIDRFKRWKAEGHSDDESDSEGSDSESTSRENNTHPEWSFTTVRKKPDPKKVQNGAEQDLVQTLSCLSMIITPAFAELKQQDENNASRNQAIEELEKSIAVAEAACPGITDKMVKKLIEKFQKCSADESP
Sequence of Epithelial discoidin domain-containing receptor 1 (Homo sapiens) (Q08345 whole entry, the tested form may be a part): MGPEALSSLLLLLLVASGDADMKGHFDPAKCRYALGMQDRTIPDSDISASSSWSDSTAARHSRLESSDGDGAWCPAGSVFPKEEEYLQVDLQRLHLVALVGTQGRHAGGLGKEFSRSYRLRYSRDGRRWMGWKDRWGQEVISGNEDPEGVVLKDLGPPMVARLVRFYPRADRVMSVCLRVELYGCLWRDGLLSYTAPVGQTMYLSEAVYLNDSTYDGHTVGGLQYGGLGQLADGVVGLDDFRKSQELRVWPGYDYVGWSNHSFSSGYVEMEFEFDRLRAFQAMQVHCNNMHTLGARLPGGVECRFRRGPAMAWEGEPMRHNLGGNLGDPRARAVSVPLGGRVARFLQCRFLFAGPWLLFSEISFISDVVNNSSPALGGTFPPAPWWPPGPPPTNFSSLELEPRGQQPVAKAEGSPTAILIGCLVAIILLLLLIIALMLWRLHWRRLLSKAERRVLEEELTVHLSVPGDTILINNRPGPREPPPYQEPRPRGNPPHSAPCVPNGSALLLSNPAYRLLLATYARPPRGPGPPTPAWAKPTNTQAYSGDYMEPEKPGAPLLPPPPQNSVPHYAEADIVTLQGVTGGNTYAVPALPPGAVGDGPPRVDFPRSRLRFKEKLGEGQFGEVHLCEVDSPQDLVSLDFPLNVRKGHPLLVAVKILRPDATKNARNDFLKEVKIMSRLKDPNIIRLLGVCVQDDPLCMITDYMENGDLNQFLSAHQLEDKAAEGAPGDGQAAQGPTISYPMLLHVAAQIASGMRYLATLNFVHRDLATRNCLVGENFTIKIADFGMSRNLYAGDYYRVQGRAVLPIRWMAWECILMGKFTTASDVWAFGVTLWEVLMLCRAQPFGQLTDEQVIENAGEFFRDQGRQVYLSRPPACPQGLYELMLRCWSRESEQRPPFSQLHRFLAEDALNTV
Sequence of Calcium/calmodulin-dependent protein kinase type 1D (Homo sapiens) (Q8IU85 whole entry, looked up): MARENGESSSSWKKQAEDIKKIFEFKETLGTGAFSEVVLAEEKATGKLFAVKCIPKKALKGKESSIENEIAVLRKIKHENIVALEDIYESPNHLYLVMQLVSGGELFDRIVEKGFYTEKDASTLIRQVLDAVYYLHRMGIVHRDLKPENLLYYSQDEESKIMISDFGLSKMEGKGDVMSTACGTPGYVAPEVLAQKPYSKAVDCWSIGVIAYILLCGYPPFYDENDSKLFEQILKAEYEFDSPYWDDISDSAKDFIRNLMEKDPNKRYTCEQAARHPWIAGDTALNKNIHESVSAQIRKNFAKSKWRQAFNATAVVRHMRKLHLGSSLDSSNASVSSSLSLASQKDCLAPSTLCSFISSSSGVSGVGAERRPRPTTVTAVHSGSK
Sequence of Calcium/calmodulin-dependent protein kinase type IV (Homo sapiens) (Q16566 whole entry, the tested form may be a part, canonical isoform): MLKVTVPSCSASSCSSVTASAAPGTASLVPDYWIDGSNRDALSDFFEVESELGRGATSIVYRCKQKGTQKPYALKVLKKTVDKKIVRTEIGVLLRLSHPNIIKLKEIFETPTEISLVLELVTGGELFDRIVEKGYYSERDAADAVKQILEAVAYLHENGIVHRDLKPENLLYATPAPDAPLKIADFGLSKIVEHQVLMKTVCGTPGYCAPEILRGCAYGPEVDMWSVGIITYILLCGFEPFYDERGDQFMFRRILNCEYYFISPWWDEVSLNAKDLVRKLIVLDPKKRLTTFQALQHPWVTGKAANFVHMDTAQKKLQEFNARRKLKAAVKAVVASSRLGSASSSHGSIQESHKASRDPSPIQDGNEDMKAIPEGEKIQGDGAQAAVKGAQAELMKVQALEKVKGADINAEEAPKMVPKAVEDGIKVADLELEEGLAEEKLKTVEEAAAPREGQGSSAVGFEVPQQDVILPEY
Sequence of Serine/threonine-protein kinase tousled-like 1 (Homo sapiens) (Q9UKI8 whole entry, the tested form may be a part): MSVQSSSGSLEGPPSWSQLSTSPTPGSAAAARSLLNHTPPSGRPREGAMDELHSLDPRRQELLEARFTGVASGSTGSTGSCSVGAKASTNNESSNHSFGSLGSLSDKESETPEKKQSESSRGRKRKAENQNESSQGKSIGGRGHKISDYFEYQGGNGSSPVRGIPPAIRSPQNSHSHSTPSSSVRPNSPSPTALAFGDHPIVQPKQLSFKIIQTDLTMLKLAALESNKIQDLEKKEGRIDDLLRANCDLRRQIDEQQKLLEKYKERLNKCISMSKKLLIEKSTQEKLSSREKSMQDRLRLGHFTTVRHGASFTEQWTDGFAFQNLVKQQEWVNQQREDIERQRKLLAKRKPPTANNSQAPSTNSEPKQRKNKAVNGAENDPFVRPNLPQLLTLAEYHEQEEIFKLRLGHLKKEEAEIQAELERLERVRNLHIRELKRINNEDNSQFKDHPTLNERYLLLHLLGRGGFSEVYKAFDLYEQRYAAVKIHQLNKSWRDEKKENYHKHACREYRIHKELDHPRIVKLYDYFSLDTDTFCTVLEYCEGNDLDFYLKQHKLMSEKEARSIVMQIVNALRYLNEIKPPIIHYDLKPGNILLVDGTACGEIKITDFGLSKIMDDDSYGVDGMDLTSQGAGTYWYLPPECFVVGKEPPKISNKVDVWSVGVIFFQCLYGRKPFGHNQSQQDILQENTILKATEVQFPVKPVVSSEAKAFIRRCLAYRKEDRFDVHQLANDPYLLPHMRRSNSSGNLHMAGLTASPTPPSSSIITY

| SMILES | inhibition [1] [%] | Activity [2] [%] | Activity [3] [%] | Activity [4] [%] | Activity [5] [%] | Activity [6] [%] | Activity [7] [%] | Activity [8] [%] | Activity [9] [%] | Activity [10] [%] | Activity [11] [%] | Activity [12] [%] | Activity [13] [%] | Activity [14] [%] | Activity [15] [%] | Activity [16] [%] | Activity [17] [%] | Activity [18] [%] | Activity [19] [%] | Activity (Homo sapiens [20]) [%] | further results |
| --- | --- | --- | --- | --- | --- | --- | --- | --- | --- | --- | --- | --- | --- | --- | --- | --- | --- | --- | --- | --- | --- |
| C=CCOC(=O)c1cc(-c2ccc(/C=C3/NC(=S)NC3=O)o2)ccc1Cl | 93 | 103 | 87 | 95 | 94 | 106 | 104 | 95 | 106 | 93 | 88 | 62 | 96 | 100 | 92 | 87 | 101 | 103 | 90 | 93 | Activity (Homo sapiens [21]): 94%; Activity [22]: 91% |
| N=C1NC(=O)/C(=C\c2ccc(-c3cccc([N+](=O)[O-])c3)o2)S1 | 96 | 75 | 93 | 87 | 101 | 99 | 106 | 106 | 103 | 94 | 95 | 55 | 108 | 100 | 97 | 81 | 110 | 102 | 76 | 93 | Activity (Homo sapiens [21]): 98%; Activity [22]: 99% |

Reference: ChEMBL document CHEMBL4334438, “Discovery of novel glycogen synthase kinase-3α inhibitors: Structure-based virtual screening, preliminary SAR and biological evaluation for treatment of acute myeloid leukemia” (Eur J Med Chem, 2019)
